Assay results: patent US10301271B2, “Crystalline forms of tyrosine kinase inhibitors and their salts” (PURDUE PHARMA L.P., priority 2014, dated 2019)

How the values were obtained:
[1] = tested on: mechanical allodynia in CCI rats; experiment: Chronic constriction injury (CCI) model of neuropathic pain; assay type: in vivo, rat; conditions: for side effects observed in dosed CCI-rats (drowsiness, motor incoordination, other abnormality): single oral dose (gabapentin 100 mg/kg)
Description: The CCI model is one of the most commonly used mono-neuropathic pain model firstly described in details by Bennett and Xie (Bennett G J, Xie Y K. Pain. 1988; 33(1):87-107). It mimics important clinical chronic pain symptoms such as mechanical allodynia and thermal hyperalgesia. Chronic constriction injury of the sciatic nerve was produced by tying four loose ligatures around the left sciatic nerve according to the method of Bennett and Xie. […] Calibrated von Frey filaments were used to determine the lowest mechanical (tactile) threshold required to evoke a brisk paw withdrawal reflex in the rat hindpaws. Rats were allowed to acclimatize in wire mesh cages for 15-20 min prior to von Frey testing. Assessment of paw withdrawal thresholds (PWTs) using von Frey filaments was undertaken prior to CCI-surgery (pre-surgery baseline on day 0). Before the drug dosing on day 14, the pre-dose baseline was recorded for each rat. […] Drug-naïve CCI-rats (n=4-6 per group) were used. The oral (PO) gavage vehicle was either 10% (w/v) Povidone K25 in water for PO dosing, or 18% (w/v) CrosPovidone in water for PO dosing, or 0.5% CMC-Na/0.1% Tween 80 in distilled water for PO dosing. The positive control gabapentin was dissolved in the vehicle and orally given at 100 mg/kg (by oral gavage). Test article was dissolved or suspended in the vehicle and orally given at 25, 50, 100 and 150 mg/kg. Each CCI-rat was administered a single oral dose of test article, gabapentin or vehicle control, 2 hours before assessment of PWT.

[2] = Rat pharmacokinetics (plasma and brain, LC-MS/MS); assay type: in vivo; conditions: PO, 100 mg/kg, mean
Experimental: Compound I was dosed to nonfasted male CD IGS rats (weighting 180-250 g, Charles River Laboratories) by single intravenous (IV, n=3/group) or oral gavage (PO, n=4/group, including control rat group for drug-free blood and brain collection) administration at a nominal dose levels of 3 mg/kg (IV) or 5 mg/kg (IV) and 10, 50, 100 mg/kg (PO) respectively. Compound was formulated in either DMSO/Solutol: HS 15/phosphate buffered saline, pH 7.4 (PBS) for both IV and PO dosing, or 10% (w/v) Povidone K12 in water for IV dosing or 10% (w/v) Povidone K25 in water for PO dosing, or 18% (w/v) CrosPovidone in water for PO dosing. An intravenous profile was obtained by taking serial or terminal blood samples at 3, 10, 30, 60, 120, 240, 360, 1440 min post dose. An oral profile was obtained by taking serial or terminal blood samples at 10, 30, 60, 120, 240, 360, 480, 1440 min post dose.
Plasma Sample Collection from Rats. Animals were sedated under general inhalant anesthesia (3% isoflurane) for blood collection by cardiac puncture. […]
Plasma and brain samples were subjected to quantitative analysis by LC-MS/MS using compound-specific mass transitions. […] The concentrations of the test compound in brain (ng/g brain tissue) and in plasma (ng/mL) as well as the ratio of the brain concentration and the plasma concentration at each time point were determined and reported.

TrkA (human full length) = target: T1, TrkA (human full length) (Homo sapiens, UniProt P04629); experiment: PathHunter live whole cell functional assay, NGF stimulated TrkA activation; assay type: cell-based; conditions: U2OS cell background, mean of triplicate; read-out: cellular IC50, inhibition of NGF stimulated TrkA activation
T1 construct: expressed recombinantly on the intracellular C-terminus of TrkA (human full length); host or cells: U2OS
T1 sequence (P04629 33-796): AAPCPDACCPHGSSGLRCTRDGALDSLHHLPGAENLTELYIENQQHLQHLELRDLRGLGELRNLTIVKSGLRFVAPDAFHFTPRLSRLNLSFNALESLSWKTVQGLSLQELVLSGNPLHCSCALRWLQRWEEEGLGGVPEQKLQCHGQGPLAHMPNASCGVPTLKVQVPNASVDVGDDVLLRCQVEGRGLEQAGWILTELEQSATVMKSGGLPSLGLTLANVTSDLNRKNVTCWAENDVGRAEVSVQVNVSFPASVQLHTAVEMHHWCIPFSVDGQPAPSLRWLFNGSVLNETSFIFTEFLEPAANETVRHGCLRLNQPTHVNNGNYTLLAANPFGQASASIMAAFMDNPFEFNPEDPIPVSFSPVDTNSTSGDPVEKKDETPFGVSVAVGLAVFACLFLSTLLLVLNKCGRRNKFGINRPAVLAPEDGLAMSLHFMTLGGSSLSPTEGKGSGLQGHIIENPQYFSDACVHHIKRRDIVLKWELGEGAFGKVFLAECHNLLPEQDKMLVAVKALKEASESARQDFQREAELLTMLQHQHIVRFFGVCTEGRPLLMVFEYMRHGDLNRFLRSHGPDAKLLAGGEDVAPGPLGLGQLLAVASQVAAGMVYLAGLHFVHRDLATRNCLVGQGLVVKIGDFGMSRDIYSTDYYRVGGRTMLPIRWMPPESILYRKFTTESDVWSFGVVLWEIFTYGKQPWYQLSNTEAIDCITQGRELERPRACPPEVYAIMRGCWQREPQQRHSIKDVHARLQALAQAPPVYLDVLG
Description: There are several methods to measure whole length TrkA activation stimulated by its natural ligand or agonist NGF in live cells. For example, the PathHunter Profiling services offered by DiscoveRx (Fremont, Calif.). The PathHunter technology is an adaptation of enzyme fragment complementation that provides a novel, generic functional cell-based assay format for detecting protein-protein interactions. In this cell-based assay approach, with U2OS cell background, a small peptide epitope (PK) is expressed recombinantly on the intracellular C-terminus of TrkA (human full length). This is co-expressed with a larger sequence, termed enzyme acceptor (EA) that is attached to a cytoplasmic protein SHC1 which will interact with TrkA intracellularly. NGF induced activation of TrkA receptor causes either homo- or hetero-dimerization of TrkA resulting in cross-phosphorylation. The SHC1-EA fusion protein then binds the phosphorylated TrkA receptor forcing complementation of the PK and EA fragment. This interaction generates an active beta-galactosidase enzyme, which is detected using a chemiluminescent substrate.

TrkB = TrkB (Homo sapiens, UniProt Q16620); experiment: PathHunter live whole cell functional assay, BDNF stimulated TrkB activation; assay type: cell-based; conditions: triplicate
Chain of TrkB (Q16620 32-822): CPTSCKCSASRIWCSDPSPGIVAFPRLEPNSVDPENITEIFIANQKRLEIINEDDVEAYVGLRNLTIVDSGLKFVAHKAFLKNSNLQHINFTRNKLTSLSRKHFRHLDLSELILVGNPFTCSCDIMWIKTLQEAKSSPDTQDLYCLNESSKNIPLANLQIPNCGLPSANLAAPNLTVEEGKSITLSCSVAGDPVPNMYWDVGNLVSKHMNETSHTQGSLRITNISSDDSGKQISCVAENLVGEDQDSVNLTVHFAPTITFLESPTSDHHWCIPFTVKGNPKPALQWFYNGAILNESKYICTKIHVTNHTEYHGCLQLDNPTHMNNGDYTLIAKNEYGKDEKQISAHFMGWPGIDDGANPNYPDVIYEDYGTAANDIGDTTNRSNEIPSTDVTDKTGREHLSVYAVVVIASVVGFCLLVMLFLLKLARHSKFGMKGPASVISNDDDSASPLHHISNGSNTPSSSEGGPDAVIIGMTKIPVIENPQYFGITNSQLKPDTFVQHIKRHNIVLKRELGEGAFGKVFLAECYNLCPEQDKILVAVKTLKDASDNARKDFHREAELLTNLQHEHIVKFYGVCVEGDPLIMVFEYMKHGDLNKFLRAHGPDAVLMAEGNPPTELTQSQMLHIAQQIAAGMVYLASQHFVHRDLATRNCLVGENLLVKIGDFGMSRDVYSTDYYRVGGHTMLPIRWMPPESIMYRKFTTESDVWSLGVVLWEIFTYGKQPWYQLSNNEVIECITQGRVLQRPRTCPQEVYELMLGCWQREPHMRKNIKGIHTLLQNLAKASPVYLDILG

TrkC = TrkC (Homo sapiens, UniProt Q16288); experiment: PathHunter live whole cell functional assay, NT3 stimulated TrkC activation; assay type: cell-based; conditions: triplicate
Chain of TrkC (Q16288 32-839): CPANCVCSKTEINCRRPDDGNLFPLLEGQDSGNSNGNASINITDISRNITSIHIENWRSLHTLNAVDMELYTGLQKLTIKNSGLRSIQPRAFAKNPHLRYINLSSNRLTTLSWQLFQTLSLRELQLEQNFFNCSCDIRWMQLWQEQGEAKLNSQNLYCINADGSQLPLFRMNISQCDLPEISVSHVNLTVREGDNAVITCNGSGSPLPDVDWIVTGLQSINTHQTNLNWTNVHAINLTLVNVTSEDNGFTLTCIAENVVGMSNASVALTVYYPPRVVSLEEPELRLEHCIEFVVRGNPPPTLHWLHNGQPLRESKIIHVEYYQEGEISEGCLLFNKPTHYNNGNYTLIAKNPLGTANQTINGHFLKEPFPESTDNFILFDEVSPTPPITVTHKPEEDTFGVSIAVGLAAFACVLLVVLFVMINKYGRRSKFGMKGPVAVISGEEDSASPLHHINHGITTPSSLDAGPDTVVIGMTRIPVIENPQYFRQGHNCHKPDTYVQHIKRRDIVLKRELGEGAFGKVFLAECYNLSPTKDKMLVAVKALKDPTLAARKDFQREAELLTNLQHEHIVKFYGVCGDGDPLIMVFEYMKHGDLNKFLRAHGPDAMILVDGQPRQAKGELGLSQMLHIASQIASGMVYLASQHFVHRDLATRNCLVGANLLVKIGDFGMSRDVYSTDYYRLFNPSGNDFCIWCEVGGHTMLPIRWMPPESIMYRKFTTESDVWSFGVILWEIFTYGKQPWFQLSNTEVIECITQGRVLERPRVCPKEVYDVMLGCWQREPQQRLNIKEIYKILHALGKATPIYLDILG

[3] = tested on: human pancreatic cancer cells AsPC-1, MIA PaCa-2, BxPC-3, Capan-1 and Panc-1; experiment: Cell viability and proliferation assay (CellTiter-Glo), pancreatic cancer cells; assay type: cell-based; conditions: 24 h or 48 h or 96 h incubation
Experimental: (§1) To assess the chemosensitivity of tumor cells, cell viability is measured by CellTiter-Glo® Luminescent Cell Viability Assay (Promega; WI, USA) per the manufacturer's instruction. Briefly, […] to 7×10^5 cells/ml are cultured in sterile 96-well plates in the presence of increasing concentrations of the drugs (test article, 0 to 100 μM), or vehicle in RPMI medium. The plates are then incubated for 24 to 96 h, and then 100 μl of CellTiter-Glo reagent is added to lyse the cells. After a 10-min incubation at room temperature, the luminescence is recorded in a luminometer with an integration time of 1 s per well. The luminescence signals for the drug-treated cells are normalized by the luminescence signal obtained from vehicle-treated cells. As an alternative method to quantitate cell viability, the trypan blue exclusion dye method was used. Vehicle- or drug-treated cells were assayed by adding trypan blue solution (0.4% in phosphate-buffered saline [PBS]) to the culture medium. After 3 min, the number of dead cells that retained the dye is compared to the total number of cells to calculate cell viability. GraphPad Prism 5 software is used to calculate IC50 and plot effect-dose curve of drugs. Multiplate reader: EnVision 2104 (PerkinElmer). % of control variability=100*[(X(drug_treated)−L(baseline))/(H(vehicle_control)−L(baseline))]. […]

[4] = tested on: human liver cancer cells SK-HEP-1 and HepG2; experiment: Cell viability and proliferation assay (CellTiter-Glo), liver cancer cells; assay type: cell-based; conditions: 24 h or 48 h or 96 h incubation
Experimental: as §1

[5] = tested on: human stomach cancer cells NCI-N87; experiment: Cell viability and proliferation assay (CellTiter-Glo), stomach cancer cells; assay type: cell-based; conditions: 24 h or 48 h or 96 h incubation
Experimental: as §1

[6] = tested on: CFA-induced inflammatory pain; experiment: Rat CFA-induced inflammatory pain model; assay type: in vivo; conditions: 50 μL of 1 mM s.c. into the paw 3 hours after CFA
Experimental: Hyperalgesia was induced by subcutaneously injecting 50 μL of CFA (Sigma-Aldrich, St. Louis, Mo., USA) into the plantar surface of the left hind paw of the rats using a 30-gauge hypodermic needle under sevoflurane anesthesia. The classical signs of inflammation, including edema and redness, for up the last day of tests were recorded. To assess the effect of test article on CFA-induced inflammatory pain, the rats were anesthetized with sevoflurane 3 hours after CFA injection and then injected 50 μL of either 1 mM test article (n=6) or Saline (n=4) subcutaneously (S.C.) into the same site as the CFA injection, using a 30-gauge hypodermic needle under sevoflurane anesthesia, according to published method (Ueda K., et al, J Pharmacol. Sci., 2010; 112(4):438-43). Paw withdrawal latencies (thermal hyperalgesia) are measured before and at […] 2, 4, and 7 days after CFA injection. Mechanical thresholds were also measured in the same way with either Formula 1 compound (n=6) or Saline (n=4) at similar different time points (for example, 1, 3 hour and 3 days). The noxious heat and mechanical thresholds were separately measured in each group of rats. The threshold was measured 3-5 times in each rat and then averaged. Stimulus interval was 5 min.

[7] = tested on: mechanical allodynia in SNL rats; experiment: Spinal nerve ligation (SNL) mono-neuropathic pain model; assay type: in vivo, rat; conditions: oral administration, dose-dependent
Experimental: The surgical procedure will be performed according to the method firstly described by Kim and Chung (Kim S H, Chung J M. Pain. 1992; 50(3):355-63.). This procedure will result in tactile allodynia in the left hindpaw. […] The dose-response anti-allodynia effects of test compound: on day 14 after surgery, rats were treated with test article at one of four doses, vehicle or positive control by oral gavage, and PWT was determined by calibrated von Frey filaments at time points of 0 (right before the drug dosing, Pre-Dose Baseline), 0.5, 1, 2, 4 and 6 hr. The anti-allodynia effects of repeated administration of test article: Administration of test article was started on day 7 after surgery, once a day for 7 days. PWT was determined by calibrated von Frey filaments, 2 hour after test article dosing each day. After 7 days dosing, the measurement were continued, every other day without compound dosing for another 7 days. PWT was determined at the time points as given above.

[8] = tested on: human pancreatic cancer cells (PANC-1); experiment: Subcutaneous xenograft tumor mouse model; assay type: in vivo; conditions: oral 150 mg/kg, Day 7 postdose, p<0.02
[9] = Accelerated stability tests by XRPD and Raman; assay type: physicochemical; conditions: over 1 week
Experimental: Approximately 2 mg of sample was gently compressed on the XRPD zero back ground single obliquely cut silica sample holder. The sample was then loaded into a D/MAX 2200 X-ray powder diffractometer (Rigaku) or a Philips X-Pert MPD diffractometer and analyzed using the following experimental conditions (Tube anode: Cu; Generator tension: 40 kV; Tube current: 40 mA; Wavelength alpha1: 1.54056 Å; Wavelength alpha2: 1.5444 Å; Start angle [2 theta]: 5; End angle [2 theta]: 50; and Continuous scan). For suspected novel forms a slightly slower scan speed was used over a range of […].
Samples were analyzed by a Nicolet Almega XR Dispersive Raman Microscope for its Raman spectrum using the following conditions (Exposure Time: 1.0 s; Acquisition No: 10; Pinhole Size: […]; Wavelength range: 2000˜300 cm^−1 (single grating); Laser: He—Ne 780 nm 100% power, Objective: 20×/0.40 or 50×/0.75 (magnifier/numerical aperture number)). Then the measured Raman spectra were corrected by baseline subtraction using the software OMNIC™ v7.3.

[10] = Solubility of the free acid; assay type: physicochemical

Row | SMILES | side effects observed in dosed CCI-rats (drowsiness, motor incoordination, other abnormality) [1] | F [2] [%] | IC50 (TrkA (human full length)) [nM] | IC50 (TrkB) [µM] | IC50 (TrkC) [µM] | IC50 [3] [µM] | IC50 [4] [µM] | IC50 [5] [µM] | analgesic effect (thermal and mechanical thresholds, FIG. 1) [6] | reduction of mechanical allodynia (paw withdrawal threshold, von Frey, FIG. 2) ([1]; single oral dose 25, 50, 100 and 150 mg/kg, 2 hours before assessment, dose-dependent) | reduction of mechanical allodynia (paw withdrawal threshold, von Frey) [7] | tumor volume reduction compared to vehicle treated group [8] | solid-state stability by XRPD and Raman ([9]; 40° C./75% RH) | solid-state stability by XRPD and Raman ([9]; 80° C.) | solubility [10]
1 | NCC1(CC(=O)O)CCCCC1 [gabapentin, reference compound] | drowsiness or motor incoordination | – | – | – | – | – | – | – | – | – | – | – | – | – | –
2 | O=C([O-])c1ccc(Nc2cc(N3CCN(C4CCCCC4)CC3)c3noc4c3c2C(=O)c2ccccc2-4)cc1.[Na+] [Compound I, Sodium 4-((3-(4-cyclohexylpiperazin-1-yl)-6-oxo-6H-anthra[1,9-cd]isoxazol-5-yl)amino)benzoate] | no such effect or other abnormality was observed | ~100 | ~50 | > 10 | > 10 | 2 to 5 | 2 to 8 | ~7 | efficacious in relieving the pain | significantly reduced mechanical allodynia | significantly reduced mechanical allodynia | more than 21% | no instability | no instability | –
3 | O=C(O)c1ccc(Nc2cc(N3CCN(C4CCCCC4)CC3)c3noc4c3c2C(=O)c2ccccc2-4)cc1 [Compound 701, 4-((3-(4-cyclohexylpiperazin-1-yl)-6-oxo-6H-anthra[1,9-cd]isoxazol-5-yl)amino)benzoic acid] | – | – | – | – | – | – | – | – | – | – | – | – | – | – | limited solubility
